In patent US20050222182A1, “Stabilized pharmaceutical compositions of halofuginone and other quinazolinone derivatives” (priority 2002, published 2005):
Like-named read-outs stand apart in the source and are kept apart here.

How the values were obtained:
[1] = assay type: physicochemical; conditions: for Ea (degradation activation energy): 1 mg/ml
Method: Halofuginone HBr powder was dissolved in acetonitrile and the solution was mixed with 4 volumes ([…]) of borate buffer to yield a […] solution. Buffer solutions at pH 5.5, 6.5, and 7.5 were prepared by mixing various amounts of sodium borate solution (12 g in 240 ml DDW) to boric acid solution (12 g in 240 ml DDW). The solutions were filtered through a 0.2 micron filter into a tightly closed glass vial coated with aluminum foil to protect from light. The solutions (1.25 ml, 1 mg/ml in acetonitrile: buffer 1:4) were kept in temperature controlled incubators at 4, 25, 37 and 60° C. At time of analysis, about 50 μl of the solution was taken and immediately injected to the HPLC.
Halofuginone was determined by HPLC using the following equipment and conditions: • Instrument: HP 1050 with HPCHEM software • Column: C8, Lichospher 60 (5, μm) LichoCART 125-4, Cat. No. 1.50213 (Merck) (similar to Hypersil BDS C8 used by AminoLab) with precolumn Lichospher 100 RP-8, 5 μm, 4×4 mm, Cat. No. 1.50961 (Merck) • Column temp: ambient • Flow rate: isocratic, 1 ml/min Eluant: Acetonitrile: 0.1 M sodium citrate buffer pH3.0 at a 30:70 v/v • Detector: UV 254 nm • Sample volume: 20 μl • Run time: 15 min., halofuginone Rt=8.8 min.; degradation product Rt=11.7 Results:
Analysis: Halofuginone was analyzed by HPLC with UV detector. The retention times for halofuginone and its main degradation product (cis isomer) are 8.8 min and 11.7 min, respectively.
Stability: Halofuginone concentrations were followed for 24 hours. […] The decrease in halofuginone concentrations for the solutions kept at 25° C. and above is shown in FIG. 1 and the rate constants are summarized in Table 1. The degradation activation energies at different pH solutions were estimated from the plot of ln(Kobs) vs. 1/T and are summarized in Table 1. The activation energies were calculated from the slopes of ln(Kobs) vs. 1/T. The activation energies are in the range of 6.57-13.13 Kcal.

[2] = assay type: physicochemical
Description: A commercially useful solution formulation was developed based on halofuginone dissolved in lactate buffer and the stability data shown in FIGS. 2 and 3. The stability of halofuginone in sodium lactate buffer (4% pH 4) was unaffected by the presence of saline in the final solution.

[3] = physchem; assay type: physicochemical; conditions: aqueous buffer, thermodynamic from solid
Method: The solubility of halofuginone in several solvents was first studied. Powder of halofuginone was dissolved in the different solvents, starting from over saturation and followed by dilutions.

SMILES | Ea (degradation activation energy) ([1]; pH 5.5) [kcal] | Ea (degradation activation energy) ([1]; pH 6.5) [kcal] | Ea (degradation activation energy) ([1]; pH 7.5) [kcal] | Slope [ln(Kobs)/1/T] ([1]; pH 5.5) | Activation energies (range over pH solutions) ([1]; pH 5.5-7.5) | Slope [ln(Kobs)/1/T] ([1]; pH 6.5) | Slope [ln(Kobs)/1/T] ([1]; pH 7.5) | Stability in lactate buffer pH 4.0 compared to distilled water [2] | solubility [3] [µg/mL]
O=C(C[C@@H]1NCCC[C@H]1O)Cn1cnc2cc(Br)c(Cl)cc2c1=O (racemic) [halofuginone, 7-bromo-6-chloro-3-[3-(3-hydroxy-2-piperidinyl)-2-oxopropyl]-4(3H)-quinazolinone] | 13.13 | 8.38 | 6.57 | 26,134 | 6.57-13.13 Kcal | 16,685 | 13,412 | higher stability | –
O=C(CC1NCCCC1O)Cn1cnc2cc(Br)c(Cl)cc2c1=O (stereo not drawn) [halofuginone-Hbr] | – | – | – | – | – | – | – | – | ≥ 5000
